Reference: the NIST ThermoML archive (doi:10.1016/j.jct.2014.06.030)

Test: xn = mol fraction of the nth substance listed
Settings: 100 kPa, Liquid; for speed of sound: Sing-around technique in a fixed-path interferometer; for mass density: Vibrating tube method

Cc1ccccc1Cl [2-chlorotoluene] + C1CCCCC1
Settings	mass density, 298.15 K [kg/m3]	mass density, 303.15 K [kg/m3]	mass density, 308.15 K [kg/m3]	speed of sound, 298.15 K [m/s]	speed of sound, 303.15 K [m/s]	speed of sound, 308.15 K [m/s]
x1 = 0.1098	808.15	803.38	798.58	1251.3	1227.6	1204.7
x1 = 0.1437	818.67	813.9	809.09	1251	1227.7	1205
x1 = 0.1987	835.72	830.93	826.11	1251.1	1228.2	1205.9
x1 = 0.2356	847.14	842.33	837.5	1251.5	1228.8	1206.7
x1 = 0.2874	863.12	858.3	853.47	1252.4	1230	1208.1
x1 = 0.3256	874.88	870.06	865.22	1253.4	1231.2	1209.5
x1 = 0.3876	893.92	889.08	884.22	1255.3	1233.6	1212.2
x1 = 0.4135	901.85	897.01	892.15	1256.2	1234.8	1213.4
x1 = 0.4834	923.2	918.34	913.47	1259.3	1238.4	1217.4
x1 = 0.5243	935.64	930.78	925.9	1261.4	1240.7	1220
x1 = 0.5763	951.42	946.54	941.65	1264.3	1244	1223.6
x1 = 0.6143	962.9	958.02	953.13	1266.5	1246.6	1226.5
x1 = 0.6654	978.29	973.4	968.5	1269.9	1250.3	1230.7
x1 = 0.7154	993.29	988.4	983.48	1273.4	1254.3	1235
x1 = 0.7654	1008.2	1003.3	998.42	1277.2	1258.4	1239.6
x1 = 0.8165	1023.4	1018.5	1013.6	1281.3	1262.9	1244.4
x1 = 0.8324	1028.1	1023.2	1018.3	1282.6	1264.3	1246
x1 = 0.8965	1047.1	1042.2	1037.3	1288.4	1270.3	1252.3

C1CCOCC1 [tetrahydropyran] + C1CCCCC1
Settings	mass density, 298.15 K [kg/m3]	mass density, 303.15 K [kg/m3]	mass density, 308.15 K [kg/m3]	speed of sound, 298.15 K [m/s]	speed of sound, 303.15 K [m/s]	speed of sound, 308.15 K [m/s]
x1 = 0.0987	782.47	777.69	772.88	1251.6	1226.7	1202.3
x1 = 0.1432	786.46	781.65	776.83	1250.7	1225.6	1201
x1 = 0.1876	790.51	785.69	780.84	1249.8	1224.6	1199.8
x1 = 0.2378	795.2	790.36	785.49	1249	1223.6	1198.7
x1 = 0.2791	799.14	794.28	789.39	1248.5	1223	1197.8
x1 = 0.3165	802.76	797.88	792.98	1248.1	1222.6	1197.3
x1 = 0.3782	808.86	803.96	799.03	1247.9	1222.4	1197
x1 = 0.4237	813.45	808.53	803.59	1248	1222.5	1197.1
x1 = 0.4521	816.36	811.43	806.48	1248.3	1222.7	1197.4
x1 = 0.4982	821.15	816.2	811.24	1248.8	1223.3	1198.1
x1 = 0.5318	824.7	819.74	814.76	1249.5	1224	1198.9
x1 = 0.5643	828.18	823.2	818.21	1250.2	1224.9	1199.9
x1 = 0.5918	831.15	826.17	821.16	1251	1225.7	1200.8
x1 = 0.6236	834.62	829.63	824.61	1252	1226.8	1202.1
x1 = 0.6982	842.94	837.92	832.88	1254.8	1230	1205.6
x1 = 0.7341	847.03	841.99	836.93	1256.4	1231.7	1207.7
x1 = 0.7949	854.07	849.02	843.94	1259.3	1235	1211.4
x1 = 0.8632	862.2	857.11	852	1262.9	1238.9	1215.8
